Reference: US20260306465A1, “COMPOUNDS FOR TREATING HEREDITARY SPASTIC PARAPLEGIA” (The Children's Medical Center Corporation, priority 2023, published 2026)

System: AP4B1-KO SH-SY5Y cells
Experiment: Testing of compounds for AP-4 deficiency: ATG9A translocation in AP4B1-KO SH-SY5Y cells
Settings: 24 h, std error in own column
Description: SH-SY5Y cell culture. […] Media changes were done every 2-3 days and drugs were administered 24 h before fixation.
Immunocytochemistry. […] SH-SY5Y cells were fixed using 4% PFA, permeabilized with 0.1% saponin in PBS and blocked in 1% BSA/0.01% saponin (blocking solution) in PBS. Primary antibody (diluted in blocking solution) was added for 1 h at room temperature. […] Plates were then gently washed three times with PBS and protected from light.
High-content imaging and automated image analysis. […] Up to 36 fields were acquired in a 6×6 format (96-well plate) using a 40×S Plan Fluor objective (NA 0.60 m, WB 3.6-2.8 mm). Image analysis was performed using a customized image analysis pipeline in MetaXpress (Molecular Devices): Briefly, cells were identified based on the presence of DAPI signal inside a TUBB3-positive cell body. […] ATG9A fluorescence intensity (F.U.) was measured in both compartments in each cell, and the ATG9A ratio was calculated by dividing the ATG9A fluorescence intensity inside the TGN by the ATG9A fluorescence intensity in the remaining cell body:
Z′-factor robust values and strictly standardized median difference (SSMD) were calculated for each plate and only plates that met the predefined quality metrics of a Z′-factor robust 0.3 and SSMD 3 were included in analyses.

Structure (SMILES)	EC50 (z atg9a ratio)
Oc1cccc2sc(N3CCc4[nH]cnc4C3)nc12 [Compound 10]	4.418
Cc1cccc2sc(N3CCc4[nH]cnc4C3)nc12 [Compound 17]	1.185
